Experimental data: PubChem BioAssay AID2060508 (Molecular Pharmacology Branch, DTP, NCI, 2025)

System: 454973-116-R2-J3-PDC spheroids, viability, % test/control
Experiment: Anticancer human tumor 454973-116-R2-J3-PDC patient-derived pancreatic carcinoma cell line growth inhibition [GQUAD]
Details: spheroids with HUVEC and MSC; for IC50: curve of first compound; for viability, T/C: stronger effect = lower value
Excerpt: DNA G-quadruplex Stabilizer Agents in Combinations in Complex Spheroids
A high-throughput screen of multi-cell type tumor spheroids was designed to identify active combinations of DNA G-quadruplex stabilizer agents and targeted small molecules. Complex spheroids include a stromal component modeled by human endothelial cells (HUVEC) and fibroblasts modeled by human mesenchymal stem cells (MSCs). The concentration ranges selected for each drug and investigational agent were based upon clinically achievable concentrations if the clinical Cmax of the agent was known.
Compounds. The drugs and investigational agents: pidnarulex (CX-5461; NSC782164), APTO-253 (NSC789042), BRACO-19 (NSC847499), peposertib (NSC802822), ceralasertib (NSC780249), elimusertib (NSC800525), camonsertib (NSC841442), AZD-1390 (NSC803789), olaparib (NSC753686), talazoparib (NSC767125), ART-558 (NSC835418), sotorasib (NSC818433), MRTX-1133 (NSC836407), SN-38 (NSC673596), topotecan (NSC609699), etoposide (NSC141540), doxorubicin (NSC123127), gemcitabine (NSC613327), 5-fluorouracil (NSC19893), paclitaxel (NSC125973), vemurafenib (NSC761431), panobinostat (NSC761190), R-306465 (JNJ-16241199; NSC773264), adavosertib (NSC754352), TP-3654 (NSC805149), carboplatin (NSC241240), KSQ-4279 (NSC840948), and staurosporine (NSC755774) were obtained from the National Cancer Institute (NCI) Developmental Therapeutics Program Chemical Repository (34). The FDA-approved anticancer drug set is available from the NCI Developmental Therapeutics Program. […] The stock solutions were prepared in dimethyl sulfoxide (DMSO, Sigma-Aldrich, St. Louis, MO, cat. D2650) at 800-fold the tested concentration and stored at -70 degrees C prior to their use. All drugs and investigational agents were tested over a range starting from a high concentration at or near the clinical Cmax and decreasing in half-log increments. If the clinical Cmax for an agent had not been determined, the highest concentration tested was 10 microM.
2.3 Cell Culture. All cells were maintained in an incubator at 37 degrees C and 5% CO2 with 95% humidity. The PDC lines were cultured according to standard operating procedures established by the NCI PDMR. All PDCs were thawed and cultured in Matrigel-coated flasks prepared with a working solution of 1X Ham's F-12 nutrient mix, without supplementation (Invitrogen, cat. 11765054), 100 U/mL penicillin-streptomycin (Invitrogen, cat. 15140122), and 2.5% Matrigel (Corning Inc., cat. 354248) for the first three passages. The 857933-349-R-J2-PDC line was cultured in 6C/Colon 1B media, which includes advanced DMEM/F-12 (Thermo Fisher Scientific, cat. 12634028), 10 mM HEPES (Thermo Fisher Scientific, cat. 15630080), 1X GlutaMAX supplement (Thermo Fisher Scientific, cat. 35050061), 0.1 mg/mL primocin (InvivoGen, cat. ant-pm-2), 10% defined fetal bovine serum, heat inactivated (HyClone Laboratories Inc., cat. SH30070.03HI), 50% L-WRN conditioned media (ATCC, cat. CRL-3276), 1.25 mM N-Acetyl-L-cysteine (Sigma-Aldrich, cat. A9165), 10 mM nicotinamide (Sigma-Aldrich, cat. N0636), 1X B-27 supplement (Thermo Fisher Scientific, cat. 17504044), 1X N-2 supplement (Thermo Fisher Scientific, cat. 17502048), 10 microM Y-27632 dihydrochloride (Tocris Bioscience, cat. 1254), and 50 ng/mL human EGF recombinant protein (Thermo Fisher Scientific, cat. PHG0311). The 485176-168-R4-J1-PDC line was cultured in Panc media, which includes all 6C/Colon 1B media components plus 100 ng/mL human FGF-10 (Thermo Fisher Scientific, cat. 100-26), 500 nM SB-431542 (Selleckchem, cat. S1067), and gastrin (Tocris, cat. 3006).
[…]
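Note: spheroids exposed to compounds for seven days.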

Structure (SMILES): C#Cc1c(F)ccc2cc(O)cc(-c3ncc4c(N5CC6CCC(C5)N6)nc(OCC56CCCN5CC(F)C6)nc4c3F)c12 (configuration not stated) + CN(C)c1ccc(Nc2c3ccc(NC(=O)CCN4CCCC4)cc3nc3cc(NC(=O)CCN4CCCC4)ccc23)cc1
- IC50 (second compound 0.0316 µM): 41.7 nM
- IC50 (second compound 0.1 µM): 52.3 nM
- IC50 (second compound 0.316 µM): 31.8 nM
- IC50 (second compound 1 µM): < 31.6 nM
- IC50 (second compound 3.16 µM): 39.7 nM
- IC50 (second compound 10 µM): < 31.6 nM
- viability, T/C (second compound 0.0316 µM, first compound 0.0316 µM): 54.1%
- viability, T/C (second compound 0.0316 µM, first compound 0.1 µM): 37.5%
- viability, T/C (second compound 0.0316 µM, first compound 0.316 µM): 28.1%
- viability, T/C (second compound 0.0316 µM, first compound 1 µM): 20.2%
- viability, T/C (second compound 0.0316 µM, first compound 3.16 µM): 20.2%
- viability, T/C (second compound 0.0316 µM, first compound 10 µM): 15.8%
- viability, T/C (second compound 0.1 µM, first compound 0.0316 µM): 56.4%
- viability, T/C (second compound 0.1 µM, first compound 0.1 µM): 41.9%
- viability, T/C (second compound 0.1 µM, first compound 0.316 µM): 24.3%
- viability, T/C (second compound 0.1 µM, first compound 1 µM): 22.4%
- viability, T/C (second compound 0.1 µM, first compound 3.16 µM): 21.2%
- viability, T/C (second compound 0.1 µM, first compound 10 µM): 16.9%
- viability, T/C (second compound 0.316 µM, first compound 0.0316 µM): 50%
- viability, T/C (second compound 0.316 µM, first compound 0.1 µM): 35.7%
- viability, T/C (second compound 0.316 µM, first compound 0.316 µM): 23%
- viability, T/C (second compound 0.316 µM, first compound 1 µM): 21.4%
- viability, T/C (second compound 0.316 µM, first compound 3.16 µM): 17.4%
- viability, T/C (second compound 0.316 µM, first compound 10 µM): 15.7%
- viability, T/C (second compound 1 µM, first compound 0.0316 µM): 49.4%
- viability, T/C (second compound 1 µM, first compound 0.1 µM): 33.1%
- viability, T/C (second compound 1 µM, first compound 0.316 µM): 26.9%
- viability, T/C (second compound 1 µM, first compound 1 µM): 16.9%
- viability, T/C (second compound 1 µM, first compound 3.16 µM): 18.6%
- viability, T/C (second compound 1 µM, first compound 10 µM): 18%
- viability, T/C (second compound 3.16 µM, first compound 0.0316 µM): 53.8%
- viability, T/C (second compound 3.16 µM, first compound 0.1 µM): 36%
- viability, T/C (second compound 3.16 µM, first compound 0.316 µM): 26.9%
- viability, T/C (second compound 3.16 µM, first compound 1 µM): 23%
- viability, T/C (second compound 3.16 µM, first compound 3.16 µM): 21.3%
- viability, T/C (second compound 3.16 µM, first compound 10 µM): 12.1%
- viability, T/C (second compound 10 µM, first compound 0.0316 µM): 44.9%
- viability, T/C (second compound 10 µM, first compound 0.1 µM): 26.7%
- viability, T/C (second compound 10 µM, first compound 0.316 µM): 17.5%
- viability, T/C (second compound 10 µM, first compound 1 µM): 13.4%
- viability, T/C (second compound 10 µM, first compound 3.16 µM): 3.6%
- viability, T/C (second compound 10 µM, first compound 10 µM): 0.44%
